Measured values taken from article PMC12814486 (Bioorganic & medicinal chemistry, 2025).
Converted amounts (≈) assume the structure as drawn.

Assays:
human sEH = target: T1, human sEH (Homo sapiens, UniProt P34913); assay: sEH inhibition assay; assay type: biochemical
T1 sequence (P34913 1-555): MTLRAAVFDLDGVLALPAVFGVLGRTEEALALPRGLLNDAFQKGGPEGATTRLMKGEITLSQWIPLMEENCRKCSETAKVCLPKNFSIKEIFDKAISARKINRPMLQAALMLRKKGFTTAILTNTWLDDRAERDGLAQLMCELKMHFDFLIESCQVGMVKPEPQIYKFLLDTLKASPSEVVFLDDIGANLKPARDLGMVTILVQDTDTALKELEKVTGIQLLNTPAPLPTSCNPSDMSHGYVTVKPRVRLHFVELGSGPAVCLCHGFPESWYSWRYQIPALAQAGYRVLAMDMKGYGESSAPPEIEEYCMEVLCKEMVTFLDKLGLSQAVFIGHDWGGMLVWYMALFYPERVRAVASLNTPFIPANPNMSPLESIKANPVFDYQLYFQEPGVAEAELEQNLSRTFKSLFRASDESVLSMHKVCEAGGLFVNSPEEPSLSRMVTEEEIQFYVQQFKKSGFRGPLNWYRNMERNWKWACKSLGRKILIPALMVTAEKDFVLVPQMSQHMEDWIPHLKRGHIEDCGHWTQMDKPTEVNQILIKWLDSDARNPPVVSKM

Solubility assay = assay type: physicochemical; details: sodium phosphate buffer, pH 7.4, aqueous buffer, kinetic from dmso stock
mouse sEH = target: T2, mouse sEH (Mus musculus, UniProt P34914); assay: sEH inhibition assay; assay type: biochemical
T2 sequence (P34914 1-554): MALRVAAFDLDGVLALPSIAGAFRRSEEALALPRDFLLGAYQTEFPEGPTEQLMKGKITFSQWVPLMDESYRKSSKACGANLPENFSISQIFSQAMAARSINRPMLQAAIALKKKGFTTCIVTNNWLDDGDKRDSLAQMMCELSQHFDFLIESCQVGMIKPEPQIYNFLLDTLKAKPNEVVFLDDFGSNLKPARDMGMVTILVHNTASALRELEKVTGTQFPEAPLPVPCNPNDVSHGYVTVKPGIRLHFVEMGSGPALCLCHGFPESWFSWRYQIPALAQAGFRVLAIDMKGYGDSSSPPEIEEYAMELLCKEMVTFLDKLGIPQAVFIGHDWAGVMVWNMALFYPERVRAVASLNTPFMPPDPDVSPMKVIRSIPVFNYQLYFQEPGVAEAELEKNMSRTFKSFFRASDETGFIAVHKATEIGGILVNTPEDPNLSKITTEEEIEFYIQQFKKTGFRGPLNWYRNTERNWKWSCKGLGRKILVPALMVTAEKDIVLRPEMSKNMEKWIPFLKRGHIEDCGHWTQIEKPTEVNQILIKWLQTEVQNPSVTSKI

rat sEH = target: T3, rat sEH (Rattus norvegicus, UniProt P80299); assay: sEH inhibition assay; assay type: biochemical
T3 sequence (P80299 1-554): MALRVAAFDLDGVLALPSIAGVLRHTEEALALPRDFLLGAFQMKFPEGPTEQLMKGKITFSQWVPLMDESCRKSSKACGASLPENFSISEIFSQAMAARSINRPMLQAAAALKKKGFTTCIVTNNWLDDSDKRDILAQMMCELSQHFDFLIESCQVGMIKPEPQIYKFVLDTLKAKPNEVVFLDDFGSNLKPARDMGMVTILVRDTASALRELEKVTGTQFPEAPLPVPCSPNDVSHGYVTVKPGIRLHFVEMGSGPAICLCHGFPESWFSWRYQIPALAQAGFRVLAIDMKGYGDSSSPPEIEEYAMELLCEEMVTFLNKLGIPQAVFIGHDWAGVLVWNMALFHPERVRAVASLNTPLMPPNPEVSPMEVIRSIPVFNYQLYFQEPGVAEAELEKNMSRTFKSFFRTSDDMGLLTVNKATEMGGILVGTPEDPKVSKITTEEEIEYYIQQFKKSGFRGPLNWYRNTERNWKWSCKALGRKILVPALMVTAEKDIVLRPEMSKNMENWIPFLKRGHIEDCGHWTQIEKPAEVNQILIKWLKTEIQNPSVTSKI

human FAAH = target: T4, human FAAH (Homo sapiens, UniProt O00519); assay: FAAH inhibition assay; assay type: biochemical
T4 sequence (O00519 1-579): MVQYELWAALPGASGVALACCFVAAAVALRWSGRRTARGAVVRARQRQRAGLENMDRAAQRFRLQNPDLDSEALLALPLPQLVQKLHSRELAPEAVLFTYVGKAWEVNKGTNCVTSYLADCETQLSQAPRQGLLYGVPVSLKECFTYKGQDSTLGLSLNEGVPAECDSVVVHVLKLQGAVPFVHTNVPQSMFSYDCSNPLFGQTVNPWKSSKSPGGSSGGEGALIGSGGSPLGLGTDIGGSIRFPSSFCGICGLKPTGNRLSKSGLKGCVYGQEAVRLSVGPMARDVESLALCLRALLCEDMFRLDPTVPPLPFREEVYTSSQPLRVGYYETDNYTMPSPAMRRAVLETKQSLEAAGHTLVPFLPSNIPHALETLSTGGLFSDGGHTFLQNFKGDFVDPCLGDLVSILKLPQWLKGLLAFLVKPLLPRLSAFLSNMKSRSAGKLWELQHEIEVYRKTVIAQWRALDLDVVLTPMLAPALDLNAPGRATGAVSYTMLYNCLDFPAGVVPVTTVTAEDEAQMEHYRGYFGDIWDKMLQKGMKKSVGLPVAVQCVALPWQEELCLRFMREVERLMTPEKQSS

microsomal EH = target: T5, microsomal EH (Homo sapiens, UniProt P07099); assay: Microsomal EH inhibition; assay type: biochemical; details: see Supplemental Data
T5 sequence (P07099 1-455): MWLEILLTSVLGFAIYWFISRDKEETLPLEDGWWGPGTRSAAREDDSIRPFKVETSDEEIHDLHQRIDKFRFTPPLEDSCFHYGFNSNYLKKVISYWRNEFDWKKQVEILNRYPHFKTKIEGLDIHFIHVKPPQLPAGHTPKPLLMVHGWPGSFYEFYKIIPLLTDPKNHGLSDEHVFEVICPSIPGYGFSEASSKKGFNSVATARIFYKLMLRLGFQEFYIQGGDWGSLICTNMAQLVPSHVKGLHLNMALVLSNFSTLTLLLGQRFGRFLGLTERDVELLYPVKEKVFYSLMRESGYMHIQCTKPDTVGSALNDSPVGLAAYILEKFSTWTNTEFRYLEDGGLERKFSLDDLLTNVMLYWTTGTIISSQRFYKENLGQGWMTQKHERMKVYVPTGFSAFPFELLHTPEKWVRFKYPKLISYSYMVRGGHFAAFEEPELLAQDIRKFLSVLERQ

EH3 = target: T6, EH3 (Homo sapiens, UniProt Q9H6B9); assay: EH3 inhibition; assay type: biochemical; details: see Supplemental Data
T6 sequence (Q9H6B9 1-360): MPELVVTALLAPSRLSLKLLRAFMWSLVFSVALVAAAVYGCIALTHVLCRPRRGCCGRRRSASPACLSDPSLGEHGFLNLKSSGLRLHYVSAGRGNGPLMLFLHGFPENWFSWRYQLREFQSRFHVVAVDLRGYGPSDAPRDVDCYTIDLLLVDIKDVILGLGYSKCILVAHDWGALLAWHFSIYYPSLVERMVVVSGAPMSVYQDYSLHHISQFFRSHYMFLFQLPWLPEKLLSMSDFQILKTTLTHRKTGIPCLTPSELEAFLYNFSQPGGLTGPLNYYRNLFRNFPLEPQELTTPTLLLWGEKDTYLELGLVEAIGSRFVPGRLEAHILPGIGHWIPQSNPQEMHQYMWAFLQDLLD

IC50 (human sEH): 19.4 nM
solubility (Solubility assay): 31 to 63 µM (≈ 17.3 to 35.1 µg/mL)
IC50 (mouse sEH): 9 nM
IC50 (rat sEH): 21.8 nM
IC50 (human FAAH): > 10000 nM
inhibition of microsomal EH (microsomal EH): does not inhibit
inhibition of EH3 (EH3): does not inhibit
SMILES: COc1cn2c(-c3ccc(NC(=O)C4CCN(S(=O)(=O)c5ccccc5Cl)CC4)cc3)nnc2c(OC)n1 [Compound 4r, 1-((2-chlorophenyl)sulfonyl)-N-(4-(6,8-dimethoxy-[1,2,4]triazolo[4,3-a]pyrazin-3-yl)phenyl)piperidine-4-carboxamide]
